From patent US20080292736A1, “Bioavailability enhancing activity of carum carvi extracts and fractions thereof” (COUNCIL OF SCIENTIFIC AND INDUSTRIAL RESEARCH, priority 2001, published 2008)
Like-named read-outs stand apart in the source and are kept apart here.

How the values were obtained:
[1] = drug with piperine; background statement; cited from earlier work
[2] = rat, in vivo; for % Enhancement in bioavailability, BE from Zingiber officinale: 35 mg/kg; for % Enhancement in bioavailability, Carum carvi (Cc) Extr.: 30 mg/kg
[3] = Enhancement of bioavailability of drugs given to rats with bioenhancers (plasma drug level by HPLC); conditions: for % Enhancement in bioavailability, BE from Carum carvi: drug with Carum carvi bioenhancer (aqueous or 50% alcoholic extract 30 mg/kg or Fraction No. 1 15 mg/kg), drug dose mg/kg

% Enhancement in bioavailability, BE from Carum carvi [2] | % Enhancement in bioavailability, Carum carvi + Piperine [2] | % Enhancement in bioavailability, Carum carvi + Zingiber officinale [2] | % Enhancement in bioavailability, BE from Zingiber officinale [2] | Compound | other results
45% | 50% | 55% | Nil | NC(=O)c1cnccn1 [Pyrazinamide] | bioenhancing effect of piperine on the drug [1]: nil or marginal
 |  |  |  | CO[C@H]1/C=C/O[C@@]2(C)Oc3c(C)c(O)c4c(O)c(c(/C=N/N5CCN(C)CC5)c(O)c4c3C2=O)NC(=O)/C(C)=C\C=C\[C@H](C)[C@H](O)[C@@H](C)[C@@H](O)[C@@H](C)[C@H](OC(C)=O)[C@@H]1C [Rifampicin] | bioenhancing effect of piperine on the drug [1]: highly significant; % Enhancement in bioavailability, BE from Carum carvi [3]: 110%; % Enhancement in bioavailability, Carum carvi + Zingiber officinale ([3]; drug with Carum carvi bioenhancer and Zingiber officinale 35 mg/kg, drug dose as in row): 140%; % Enhancement in bioavailability, Carum carvi + Piperine ([3]; drug with Carum carvi bioenhancer and piperine 8 mg/kg, drug dose as in row): 170%; % Enhancement in bioavailability, BE from Zingiber officinale ([3]; drug with Zingiber officinale 50% alcoholic extract of fresh ginger 35 mg/kg, drug dose as in row): 65%; % Enhancement in bioavailability, Piperine as BE ([3]; drug with piperine 8 mg/kg, drug dose as in row): 45%
80% | 79% | 82% | Nil | C=CC1=C(C(=O)O)N2C(=O)[C@@H](NC(=O)/C(=N\OCC(=O)O)c3csc(N)n3)[C@H]2SC1 [Cefixime] | 
 |  |  | 21% | CC(C)[C@H](N)C(=O)O [Valine] | % Enhancement in bioavailability, Carum carvi + Zingiber officinale, Extr. (Cc) [2]: 32%; % Enhancement in bioavailability, Carum carvi + Zingiber officinale, Frac 1. (Cc) [2]: 38%; % Enhancement in bioavailability, Carum carvi + piperine, Extr. (Cc) [2]: 22%; % Enhancement in bioavailability, Carum carvi + piperine, Frac 1. (Cc) [2]: 29%; % Enhancement in bioavailability, Carum carvi (Cc) Extr. [2]: 16%
 | 50% | 65% | 68% | CCOC(=O)C1=C(COCCN)NC(C)=C(C(=O)OC)C1c1ccccc1Cl (stereo not shown) [Amlodipine] | % Enhancement in bioavailability, BE from Carum carvi [3]: Nil
55% | 65% | 60% | Nil | CCn1cc(C(=O)O)c(=O)c2cc(F)c(N3CCNCC3)cc21 [Norfloxacin] | 
 |  |  |  | CCCNC(=O)NS(=O)(=O)c1ccc(Cl)cc1 [chlorpropamide] | bioenhancing effect of piperine on the drug [1]: does not enhance
70% | 80% | 75% | 71% | N[C@@H]1CON=C1O [Cycloserine] | 
 |  |  | Nil | Vitamin A | % Enhancement in bioavailability, Carum carvi + Zingiber officinale, Extr. (Cc) [2]: 20%; % Enhancement in bioavailability, Carum carvi + Zingiber officinale, Frac 1. (Cc) [2]: 27%; % Enhancement in bioavailability, Carum carvi + piperine, Extr. (Cc) [2]: 13%; % Enhancement in bioavailability, Carum carvi + piperine, Frac 1. (Cc) [2]: 16%; % Enhancement in bioavailability, Carum carvi (Cc) Extr. [2]: 17%
67% | 70% | 150% | 147% | CNC(=C[N+](=O)[O-])NCCSCc1ccc(CN(C)C)o1 [Ranitidine] | 
 |  |  | 24% | CC(C)C[C@H](N)C(=O)O [Leucine] | % Enhancement in bioavailability, Carum carvi + Zingiber officinale, Extr. (Cc) [2]: 35%; % Enhancement in bioavailability, Carum carvi + Zingiber officinale, Frac 1. (Cc) [2]: 40%; % Enhancement in bioavailability, Carum carvi + piperine, Extr. (Cc) [2]: 29%; % Enhancement in bioavailability, Carum carvi + piperine, Frac 1. (Cc) [2]: 32%; % Enhancement in bioavailability, Carum carvi (Cc) Extr. [2]: 19%
Nil | 98% | 76% | 86% | CN1C(C(=O)Nc2ccccn2)=C(O)c2ccccc2S1(=O)=O [Piroxicam] | 
 |  |  | Nil | O=C1O[C@H]([C@@H](O)CO)C(O)=C1O [Vit C] | % Enhancement in bioavailability, Carum carvi + Zingiber officinale, Extr. (Cc) [2]: Nil; % Enhancement in bioavailability, Carum carvi + Zingiber officinale, Frac 1. (Cc) [2]: Nil; % Enhancement in bioavailability, Carum carvi + piperine, Extr. (Cc) [2]: Nil; % Enhancement in bioavailability, Carum carvi + piperine, Frac 1. (Cc) [2]: Nil; % Enhancement in bioavailability, Carum carvi (Cc) Extr. [2]: Nil
90% | 95% | 114% | 75% | C=CC[C@@H]1/C=C(\C)C[C@H](C)C[C@H](OC)[C@H]2O[C@@](O)(C(=O)C(=O)N3CCCC[C@H]3C(=O)O[C@H](/C(C)=C/[C@@H]3CC[C@@H](O)[C@H](OC)C3)[C@H](C)[C@@H](O)CC1=O)[C@H](C)C[C@@H]2OC [Tacrolimus] | 
55% | 90% | 86% | 78% | CC[C@H]1OC(=O)[C@H](C)[C@@H](O[C@H]2C[C@@](C)(OC)[C@@H](O)[C@H](C)O2)[C@H](C)[C@@H](O[C@@H]2O[C@H](C)C[C@H](N(C)C)[C@H]2O)[C@](C)(O)C[C@@H](C)CN(C)[C@H](C)[C@@H](O)[C@]1(C)O [Azithromycin] | 
78% | 100% | 90% | 82% | Nc1nc2c(ncn2COCCO)c(=O)[nH]1 [Acyclovir] | 
Nil | nil | nil | Nil | NNC(=O)c1ccncc1 [Isoniazid] | bioenhancing effect of piperine on the drug [1]: nil or marginal
Nil | nil | nil | Nil | CC[C@@H](CO)NCCN[C@@H](CC)CO [Ethambutol] | 
76% | 70% | 75% | nil | COc1ccc2[nH]c([S+]([O-])Cc3ncc(C)c(OC)c3C)nc2c1 (stereo not shown) [Omeprazole] | 

Compound | % Enhancement in bioavailability, BE from Carum carvi [2] | % Enhancement in bioavailability, Carum carvi + Piperine [2] | % Enhancement in bioavailability, Carum carvi + Zingiber officinale [2] | % Enhancement in bioavailability, BE from Zingiber officinale [2] | other results
NCCCC[C@H](N)C(=O)O [Lysine] |  |  |  | 19% | % Enhancement in bioavailability, Carum carvi + Zingiber officinale, Extr. (Cc) [2]: 39%; % Enhancement in bioavailability, Carum carvi + Zingiber officinale, Frac 1. (Cc) [2]: 43%; % Enhancement in bioavailability, Carum carvi + piperine, Extr. (Cc) [2]: 33%; % Enhancement in bioavailability, Carum carvi + piperine, Frac 1. (Cc) [2]: 38%; % Enhancement in bioavailability, Carum carvi (Cc) Extr. [2]: 26%
